Results: PubChem BioAssay (NCI)
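GI50 = concentration required for 50% inhibition of growth. TGI: total growth inhibition.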

Assays:
Assay in all cases: inhibition of tumour cell growth, NCI panel, 384-well format
K-562 leukemia = tested on: K-562 leukemia
BT-549 breast = tested on: BT-549 breast
MCF7 breast = tested on: MCF7 breast
M14 melanoma = tested on: M14 melanoma
MOLT-4 leukemia = tested on: MOLT-4 leukemia
NCI-H460 NSCLC = tested on: NCI-H460 NSCLC
CAKI-1 renal = tested on: CAKI-1 renal
786-0 renal = tested on: 786-0 renal
HCT-116 colon = tested on: HCT-116 colon
RPMI-8226 leukemia = tested on: RPMI-8226 leukemia
HT29 colon = tested on: HT29 colon
MALME-3M melanoma = tested on: MALME-3M melanoma
ACHN renal = tested on: ACHN renal

Cc1cc(Nc2ncc(Cl)c(Nc3ccccc3S(=O)(=O)C(C)C)n2)c(OC(C)C)cc1C1CCNCC1
GI50 (K-562 leukemia): 978 nM | TGI (K-562 leukemia): 2150 nM | GI50 (BT-549 breast): 1880 nM | TGI (BT-549 breast): 3300 nM | GI50 (MCF7 breast): 297 nM | TGI (MCF7 breast): 1300 nM | GI50 (M14 melanoma): 1270 nM | TGI (M14 melanoma): 2550 nM | GI50 (MOLT-4 leukemia): 711 nM | TGI (MOLT-4 leukemia): 1980 nM | GI50 (NCI-H460 NSCLC): 1080 nM | TGI (NCI-H460 NSCLC): 2370 nM | GI50 (CAKI-1 renal): 1750 nM | TGI (CAKI-1 renal): 3140 nM | GI50 ([…]-0 renal): 1260 nM | TGI (786-0 renal): 2520 nM | GI50 (HCT-116 colon): 826 nM | TGI (HCT-116 colon): 2070 nM | GI50 (RPMI-8226 leukemia): 720 nM | TGI (RPMI-8226 leukemia): 1980 nM | GI50 (HT29 colon): 408 nM | TGI (HT29 colon): 1460 nM | GI50 (MALME-3M melanoma): 551 nM | TGI (MALME-3M melanoma): 1720 nM | GI50 (ACHN renal): 1770 nM | TGI (ACHN renal): 3170 nM
